Read-outs that look alike come from different tables or passages of the source.
Legend:
Assay type in all cases: biochemical
[1] = molecular target: S6K1 (Homo sapiens, UniProt P23443); assay: Kinase profiling S6K1; conditions: for remaining activity at 100 µM: read-out: residual kinase activity, S6K1
From the text: (§1) Any value less that 25 is considered to be highly significant inhibition.

[2] = molecular target: SmMLCK (Homo sapiens, UniProt Q15746); assay: Kinase profiling SmMLCK; conditions: for remaining activity at 100 µM: read-out: residual kinase activity, SmMLCK
SmMLCK, sequence (Q15746 923-1914): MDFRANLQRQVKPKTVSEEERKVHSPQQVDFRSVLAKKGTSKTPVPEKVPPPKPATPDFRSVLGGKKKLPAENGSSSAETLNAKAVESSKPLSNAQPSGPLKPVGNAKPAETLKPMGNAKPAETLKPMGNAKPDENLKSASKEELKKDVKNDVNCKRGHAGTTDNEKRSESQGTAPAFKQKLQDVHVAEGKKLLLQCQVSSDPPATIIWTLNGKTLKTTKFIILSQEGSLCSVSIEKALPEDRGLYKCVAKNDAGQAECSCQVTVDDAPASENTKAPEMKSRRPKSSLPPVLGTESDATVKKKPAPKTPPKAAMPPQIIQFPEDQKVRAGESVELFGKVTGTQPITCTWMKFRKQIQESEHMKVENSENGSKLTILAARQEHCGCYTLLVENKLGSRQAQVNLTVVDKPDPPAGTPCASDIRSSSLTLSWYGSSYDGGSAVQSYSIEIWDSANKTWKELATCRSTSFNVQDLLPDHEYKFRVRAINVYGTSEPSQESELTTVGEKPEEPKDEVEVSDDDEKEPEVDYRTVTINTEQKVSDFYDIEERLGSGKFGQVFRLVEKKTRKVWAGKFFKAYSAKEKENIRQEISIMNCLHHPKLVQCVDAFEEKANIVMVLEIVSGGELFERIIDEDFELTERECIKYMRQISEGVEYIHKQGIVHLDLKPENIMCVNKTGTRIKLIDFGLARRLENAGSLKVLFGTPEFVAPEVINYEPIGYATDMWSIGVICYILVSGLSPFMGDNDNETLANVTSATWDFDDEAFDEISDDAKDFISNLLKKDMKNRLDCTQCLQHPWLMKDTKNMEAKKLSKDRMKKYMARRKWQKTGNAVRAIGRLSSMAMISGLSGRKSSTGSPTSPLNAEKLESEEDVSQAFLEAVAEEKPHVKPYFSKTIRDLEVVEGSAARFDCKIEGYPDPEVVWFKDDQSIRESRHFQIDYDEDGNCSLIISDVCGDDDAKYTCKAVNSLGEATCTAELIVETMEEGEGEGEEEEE

[3] = molecular target: HIPK2 (Homo sapiens, UniProt Q9H2X6); assay: Kinase profiling HIPK2; conditions: for remaining activity at 100 µM: read-out: residual kinase activity, HIPK2
HIPK2, sequence (Q9H2X6 whole entry, species assumed): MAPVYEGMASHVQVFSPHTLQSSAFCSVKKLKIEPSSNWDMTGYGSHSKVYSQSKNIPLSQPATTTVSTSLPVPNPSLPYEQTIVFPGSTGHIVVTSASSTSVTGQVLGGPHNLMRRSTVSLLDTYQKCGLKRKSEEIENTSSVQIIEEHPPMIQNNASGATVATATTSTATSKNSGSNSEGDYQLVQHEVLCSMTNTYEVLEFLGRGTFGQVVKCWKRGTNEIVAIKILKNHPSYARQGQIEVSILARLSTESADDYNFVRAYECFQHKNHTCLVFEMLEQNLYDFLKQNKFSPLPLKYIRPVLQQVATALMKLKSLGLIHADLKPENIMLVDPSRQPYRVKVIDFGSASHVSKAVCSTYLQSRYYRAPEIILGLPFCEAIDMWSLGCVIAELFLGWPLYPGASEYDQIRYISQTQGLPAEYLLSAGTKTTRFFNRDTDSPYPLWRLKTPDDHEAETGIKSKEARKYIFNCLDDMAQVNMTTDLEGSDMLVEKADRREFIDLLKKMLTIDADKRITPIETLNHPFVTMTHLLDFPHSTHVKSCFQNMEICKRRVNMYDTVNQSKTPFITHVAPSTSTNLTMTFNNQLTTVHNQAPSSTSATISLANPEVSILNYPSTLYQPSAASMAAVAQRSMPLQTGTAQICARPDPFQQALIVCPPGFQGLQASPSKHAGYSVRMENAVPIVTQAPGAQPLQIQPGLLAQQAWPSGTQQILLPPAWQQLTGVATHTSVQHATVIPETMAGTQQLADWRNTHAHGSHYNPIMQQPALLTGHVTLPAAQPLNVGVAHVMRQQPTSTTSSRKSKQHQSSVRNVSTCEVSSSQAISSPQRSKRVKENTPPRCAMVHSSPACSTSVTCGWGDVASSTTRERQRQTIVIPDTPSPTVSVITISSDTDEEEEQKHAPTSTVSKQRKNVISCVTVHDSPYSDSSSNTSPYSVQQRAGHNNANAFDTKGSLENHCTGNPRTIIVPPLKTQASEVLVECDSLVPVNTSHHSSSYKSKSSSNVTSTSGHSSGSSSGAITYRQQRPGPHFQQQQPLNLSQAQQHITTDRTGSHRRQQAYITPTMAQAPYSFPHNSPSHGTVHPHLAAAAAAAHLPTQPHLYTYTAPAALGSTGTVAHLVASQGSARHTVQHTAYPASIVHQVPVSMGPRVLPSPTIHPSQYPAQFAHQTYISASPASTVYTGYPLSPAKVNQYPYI
From the text: as §1

[4] = molecular target: T1, IRAK4 (Homo sapiens, UniProt Q9NWZ3); assay: Kinase profiling IRAK4; conditions: for remaining activity at 100 µM: read-out: residual kinase activity, IRAK4
T1 sequence (Q9NWZ3 1-460): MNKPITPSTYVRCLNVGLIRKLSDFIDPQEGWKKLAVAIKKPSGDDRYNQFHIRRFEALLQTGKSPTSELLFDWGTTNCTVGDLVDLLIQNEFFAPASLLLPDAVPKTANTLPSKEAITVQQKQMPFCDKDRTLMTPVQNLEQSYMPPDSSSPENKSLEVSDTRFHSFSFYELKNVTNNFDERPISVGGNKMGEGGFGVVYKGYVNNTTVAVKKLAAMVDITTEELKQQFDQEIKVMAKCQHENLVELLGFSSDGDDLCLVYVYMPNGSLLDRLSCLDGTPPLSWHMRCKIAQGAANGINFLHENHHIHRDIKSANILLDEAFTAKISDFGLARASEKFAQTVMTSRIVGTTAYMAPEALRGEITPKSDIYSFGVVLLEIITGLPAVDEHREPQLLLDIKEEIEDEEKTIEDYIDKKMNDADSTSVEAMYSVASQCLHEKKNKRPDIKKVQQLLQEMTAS
From the text: as §1

[5] = molecular target: T2, TTK (Homo sapiens, UniProt P33981); assay: Kinase profiling TTK; conditions: for remaining activity at 100 µM: read-out: residual kinase activity, TTK
T2 sequence (P33981 1-857): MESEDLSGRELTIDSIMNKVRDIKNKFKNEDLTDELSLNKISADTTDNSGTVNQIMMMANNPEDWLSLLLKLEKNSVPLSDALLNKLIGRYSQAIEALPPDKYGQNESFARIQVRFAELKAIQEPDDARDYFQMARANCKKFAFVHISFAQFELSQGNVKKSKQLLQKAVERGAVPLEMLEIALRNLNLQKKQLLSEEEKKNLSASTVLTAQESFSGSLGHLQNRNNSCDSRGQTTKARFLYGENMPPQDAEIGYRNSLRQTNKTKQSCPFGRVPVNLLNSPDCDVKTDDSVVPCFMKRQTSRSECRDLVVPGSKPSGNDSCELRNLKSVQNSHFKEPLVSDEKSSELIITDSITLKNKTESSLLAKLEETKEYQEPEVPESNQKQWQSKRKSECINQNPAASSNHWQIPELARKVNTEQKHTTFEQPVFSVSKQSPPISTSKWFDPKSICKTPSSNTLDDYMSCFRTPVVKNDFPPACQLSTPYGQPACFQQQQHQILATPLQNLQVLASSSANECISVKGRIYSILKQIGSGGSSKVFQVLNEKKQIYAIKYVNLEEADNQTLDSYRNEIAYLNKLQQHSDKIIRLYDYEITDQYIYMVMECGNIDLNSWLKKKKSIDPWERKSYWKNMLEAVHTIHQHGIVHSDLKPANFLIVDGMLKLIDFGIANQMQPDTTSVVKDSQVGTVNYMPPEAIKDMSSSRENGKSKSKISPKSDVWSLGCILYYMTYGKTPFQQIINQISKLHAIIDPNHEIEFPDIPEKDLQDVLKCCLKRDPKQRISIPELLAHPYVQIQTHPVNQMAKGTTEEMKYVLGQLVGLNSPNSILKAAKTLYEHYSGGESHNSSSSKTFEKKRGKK
From the text: as §1

[6] = molecular target: Src (Homo sapiens, UniProt P12931); assay: Kinase profiling Src; conditions: for remaining activity at 100 µM: read-out: residual kinase activity, Src
Src, sequence (P12931 whole entry, species assumed): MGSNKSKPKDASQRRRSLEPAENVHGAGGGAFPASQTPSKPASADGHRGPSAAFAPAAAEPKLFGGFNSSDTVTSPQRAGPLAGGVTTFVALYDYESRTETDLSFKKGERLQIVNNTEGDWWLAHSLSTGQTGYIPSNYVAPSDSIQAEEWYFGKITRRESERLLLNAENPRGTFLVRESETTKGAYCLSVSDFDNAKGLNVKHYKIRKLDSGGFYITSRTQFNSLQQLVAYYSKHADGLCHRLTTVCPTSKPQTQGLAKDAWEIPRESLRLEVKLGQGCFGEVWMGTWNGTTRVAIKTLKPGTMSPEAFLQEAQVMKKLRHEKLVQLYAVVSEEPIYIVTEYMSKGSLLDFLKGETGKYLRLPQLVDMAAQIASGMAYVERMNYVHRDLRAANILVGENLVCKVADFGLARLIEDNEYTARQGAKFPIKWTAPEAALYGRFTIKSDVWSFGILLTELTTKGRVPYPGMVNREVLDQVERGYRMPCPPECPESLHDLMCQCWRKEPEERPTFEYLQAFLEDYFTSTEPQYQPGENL
From the text: as §1

[7] = molecular target: TrkA (Homo sapiens, UniProt P04629); assay: Kinase profiling TrkA; conditions: for remaining activity at 100 µM: read-out: residual kinase activity, TrkA
TrkA, sequence (P04629 33-796, species assumed): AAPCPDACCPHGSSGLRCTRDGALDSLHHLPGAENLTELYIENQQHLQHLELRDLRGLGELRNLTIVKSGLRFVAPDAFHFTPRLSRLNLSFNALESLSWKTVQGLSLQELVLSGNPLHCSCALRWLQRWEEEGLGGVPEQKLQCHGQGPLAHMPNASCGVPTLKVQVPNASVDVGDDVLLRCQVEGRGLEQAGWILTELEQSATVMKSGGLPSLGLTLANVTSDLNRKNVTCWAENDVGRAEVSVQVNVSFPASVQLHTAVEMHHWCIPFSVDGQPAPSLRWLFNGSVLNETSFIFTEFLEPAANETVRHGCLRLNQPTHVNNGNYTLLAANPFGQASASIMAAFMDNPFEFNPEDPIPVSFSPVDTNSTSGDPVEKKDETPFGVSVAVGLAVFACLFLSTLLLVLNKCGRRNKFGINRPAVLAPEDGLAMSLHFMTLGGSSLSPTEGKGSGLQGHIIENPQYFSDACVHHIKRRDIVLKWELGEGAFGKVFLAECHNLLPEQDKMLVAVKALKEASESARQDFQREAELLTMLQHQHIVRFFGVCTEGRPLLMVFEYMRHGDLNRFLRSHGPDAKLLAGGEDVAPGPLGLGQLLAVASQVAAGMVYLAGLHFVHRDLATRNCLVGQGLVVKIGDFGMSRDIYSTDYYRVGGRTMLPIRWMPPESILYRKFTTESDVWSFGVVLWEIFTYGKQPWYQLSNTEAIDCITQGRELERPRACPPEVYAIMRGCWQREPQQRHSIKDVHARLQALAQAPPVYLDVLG
From the text: as §1

[8] = test system: VEG-FR; assay: Kinase profiling VEG-FR
From the text: as §1

[9] = 100 micromolar inhibitor concentration, 100 is no change
[10] = 100 micromolar inhibitor, 100 = no change

S6K1, sequence (P23443 whole entry, species assumed): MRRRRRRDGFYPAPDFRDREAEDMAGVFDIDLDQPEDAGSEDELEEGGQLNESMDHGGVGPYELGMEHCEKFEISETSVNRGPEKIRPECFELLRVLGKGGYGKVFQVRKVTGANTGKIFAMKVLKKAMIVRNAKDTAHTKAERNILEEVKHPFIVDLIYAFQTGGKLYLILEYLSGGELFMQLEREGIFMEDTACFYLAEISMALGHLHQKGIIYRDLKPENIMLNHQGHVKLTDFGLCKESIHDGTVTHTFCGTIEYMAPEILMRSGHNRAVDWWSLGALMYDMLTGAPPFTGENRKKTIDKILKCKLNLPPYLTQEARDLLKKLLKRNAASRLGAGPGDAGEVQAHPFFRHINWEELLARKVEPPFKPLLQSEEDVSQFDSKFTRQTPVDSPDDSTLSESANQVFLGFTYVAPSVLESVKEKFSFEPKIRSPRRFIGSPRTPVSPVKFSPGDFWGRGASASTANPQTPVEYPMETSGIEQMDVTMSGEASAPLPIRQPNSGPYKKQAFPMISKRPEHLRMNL

SMILES | residual kinase activity, S6K1 [1, 9] | residual kinase activity, SmMLCK [2, 9] | residual kinase activity, HIPK2 [3, 9] | residual kinase activity, IRAK4 [4, 9] | residual kinase activity, TTK [5, 9] | residual kinase activity, Src [6, 9] | residual kinase activity, TrkA [7, 9] | residual kinase activity, VEG-FR [8, 9] | further results
O=C(Nc1nc2ccc(F)cc2s1)c1ccccc1 [Compound 03-92] | 79 | 68 | 78 | 72 | 47 | 74 | 74 | 53 | –
CC(=O)Nc1nc2ccc(F)cc2s1 [Compound 03-94] | 67 | 67 | 27 | 44 | 37 | 76 | 58 | 18 | –
COc1ccc2sc(NC(=O)c3ccccc3)nc2c1 [Compound 03-95] | 77 | 48 | 74 | 57 | 71 | 77 | 35 | 65 | –
COc1ccc2nc(NC(=O)c3ccccc3)sc2c1 [Compound 03-98] | 76 | 75 | 41 | 46 | 18 | 172 | 60 | 37 | –
O=C(Nc1nc2ccc(C(F)(F)F)cc2s1)c1ccccc1 [Compound 03-99] | 86 | 89 | 90 | 70 | 32 | 87 | 84 | 28 | –
O=C(Nc1nc2cc(O)ccc2s1)c1ccccc1 [Compound 03-102] | 42 | 15 | 36 | 34 | 30 | 30 | 38 | 11 | –
COC(=O)c1cccc(C(=O)Nc2nc3ccc(C(F)(F)F)cc3s2)c1 [Compound 03-105, Methyl 3-((6-(trifluoromethyl)benzo[d]thiazol-2-yl)carbamoyl)benzoate] | – | – | – | – | – | – | – | 29 | remaining activity at 100 µM [1]: 78%; remaining activity at 100 µM [2, 9]: 63%; remaining activity at 100 µM [3]: 72%; remaining activity at 100 µM [4]: 78%; remaining activity at 100 µM [5]: 9%; remaining activity at 100 µM [6]: 165%; remaining activity at 100 µM [7]: 82%
N#Cc1ccc2nc(NC(=O)c3ccccc3)sc2c1 [Compound 03-106] | 78 | 94 | 62 | 70 | 42 | 85 | 66 | 36 | –
COC(=O)c1cccc(C(=O)Nc2nc3cc(OC)ccc3s2)c1 [Compound 03-108] | 95 | 79 | 87 | 63 | 94 | 169 | 85 | 77 | –
COC(=O)c1cccc(C(=O)Nc2nc3ccc(F)cc3s2)c1 [Compound 03-110] | 91 | 55 | 66 | 96 | 35 | 178 | 111 | 66 | –
COc1ccc2sc(NC(=O)c3cccc(C(N)=O)c3)nc2c1 [Compound 03-113] | 79 | 83 | 96 | 58 | 95 | 79 | 87 | 86 | –
COc1ccc2nc(C(=O)Nc3ccccc3)sc2c1 [Compound 13-03] | – | – | – | – | – | – | – | – | residual kinase activity, S6K1 [1, 10]: 90; residual kinase activity, SmMLCK [2, 10]: 85; residual kinase activity, HIPK2 [3, 10]: 96; residual kinase activity, IRAK4 [4, 10]: 93; residual kinase activity, TTK [5, 10]: 108; residual kinase activity, Src [6, 10]: 100; residual kinase activity, TrkA [7, 10]: 55; residual kinase activity, VEG-FR [8, 10]: 87
CC(=O)Nc1nc2ccc([N+](=O)[O-])cc2s1 [Compound 13-10] | – | – | – | – | – | – | – | 5 | remaining activity at 100 µM [1, 9]: 65%; remaining activity at 100 µM [2, 9]: 58%; remaining activity at 100 µM [3, 9]: 8%; remaining activity at 100 µM [4, 9]: 8%; remaining activity at 100 µM [5, 9]: 55%; remaining activity at 100 µM [6, 9]: 85%; remaining activity at 100 µM [7, 9]: 98%
COc1cccc(NC(=O)Nc2nc3cc(O)ccc3s2)c1 [Compound 13-62] | – | – | – | – | – | – | – | – | residual kinase activity, S6K1 [1, 10]: 22; residual kinase activity, SmMLCK [2, 10]: 5; residual kinase activity, HIPK2 [3, 10]: 23; residual kinase activity, IRAK4 [4, 10]: 17; residual kinase activity, TTK [5, 10]: 25; residual kinase activity, Src [6, 10]: 7; residual kinase activity, TrkA [7, 10]: 9; residual kinase activity, VEG-FR [8, 10]: 7

Reference: patent publication US10231954B2, “Neurodegenerative therapies” (LYTIX BIOPHARMA AS, priority 2014, dated 2019)
